# Entries after “also recorded” stand apart in the source; their conditions may differ.
# How the values were obtained:
# [1] = test system: mature internodal stem segments of sweet orange cv. Hamlin; experiment: Culture of explants on DBA3 medium with surfactant: fresh weight and shoot regeneration; assay type: cell-based, Citrus sinensis; details: for % Organogenic explants / Total shoot yield: 60 explants/treatment
# Experimental: Mature budwood collected from C. sinensis cv. Hamlin from virus-free greenhouse material were grafted onto seedlings of rough lemon (C. jambhiri Lush.) and maintained in a greenhouse (20-27° C.). The developing shoots were allowed to grow as one, two and three flushes, each used separately for experimental studies. Shoots (approx. 20 cm in length) were pruned from each plant and used for explant preparation. The stems were stripped of their thorns and leaves, surface-sterilized in 70% ethanol (1 min), disinfected for 20 min in 20% (v/v) domestic bleach solution containing 0.2% (v/v) Tween® 20 and washed five times with sterile distilled water. Internodal stem explants were cut transversely into 1 cm long segments and placed horizontally onto the culture media with the cut ends submerged (approx. 2 mm) into the medium. […] The non-ionic surfactants were dissolved in sterile-distilled water and then filter-sterilized before adding to the medium after autoclaving, along with filter-sterilized Gamborg B5 vitamins and de-proteinized coconut water. Cultures were maintained in the light (60 μm m^−2s^−1 cool light fluorescent tubes) under a 16 h photoperiod at 28±2° C. and subcultured at 21-28 d intervals. After 10 weeks, the weight of each explant and the number of adventitious shoots was recorded. This experiment was repeated for each of the first three flushes of shoots to compare growth and shoot regeneration efficiencies.
# [2] = test system: shoots regenerated from mature stem segments of sweet orange cv. Hamlin; experiment: Grafting of regenerated adventitious shoots onto rough lemon rootstock: survival and growth; assay type: in vivo, Citrus sinensis
# From the text: Adventitious shoots (0.5 cm long) were excised from mature stem segments and grafted in vivo onto rough lemon seedlings. Briefly, rough lemon seedlings (approx. 25-30 cm in height) were decapitated (approx. 15 cm above ground) where the diameter of the stem equals the width of the shoot (2-3 mm). A 5 mm deep longitudinal cut is made into the cambium layer of the seedling into which the shoot is wedged and the grafted area sealed with Parafilm. The shoot is wounded, each side, by removing approx. 1 mm of the surface with a scalpel blade in the same plane as the exposed cambium layer to promote growth of the new shoot. The whole plant is covered with a clear plastic bag and maintained in the light (100 μm^−2s^−1 cool light fluorescent tubes) under a 16 h photoperiod at 22-24° C. After approx. 21 d, the grafted shoot starts to grow and the bag is gradually opened to aid acclimatization. The plant is then transferred to the greenhouse approx. 28 d later and allowed to grow to maturity.
# Shoots (approx. 1 cm in length) were excised from explants and grafted onto a rough lemon rootstock to allow growth and development. […] This phenotype of growth and development is typical of a mature citrus tree as observed in previous studies on the tissue culture of mature internodal stem segments (Cervera et al., 1998, Transgenic Res 7: 51-59).
# [3] = test system: cotyledonary explants of Jute; details: cited from earlier work
# [4] = Flush 1, surfactant 0.001%, 10 weeks of culture
# [5] = Flush 1, surfactant 0.01%, 10 weeks of culture
# [6] = Flush 1, surfactant 0.1%, 10 weeks of culture
# [7] = Flush 1, surfactant 0.5%, 10 weeks of culture
# [8] = Flush 2, surfactant 0.001%, 10 weeks of culture
# [9] = Flush 2, surfactant 0.01%, 10 weeks of culture
# [10] = Flush 2, surfactant 0.1%, 10 weeks of culture
# [11] = Flush 2, surfactant 0.5%, 10 weeks of culture
# [12] = Flush 3, surfactant 0.001%, 10 weeks of culture
# [13] = Flush 3, surfactant 0.01%, 10 weeks of culture
# [14] = Flush 3, surfactant 0.1%, 10 weeks of culture
# [15] = Flush 3, surfactant 0.5%, 10 weeks of culture
# [16] = shoots from explants cultured at 0.001-0.1% (v/v), rough lemon rootstock
substance,measurement,setting,value
"polyethylene glycol p-(1,1,3,3-tetramethylbutyl)-phenyl ether [Triton® X-100]",Mean fresh weight,"[1]; 0.001% (v/v) in DBA3, first flush",347±24 mg f. wt.
same,number of shoots per explant and number of explants giving shoots compared to the control,"[1]; 0.001% (v/v) in DBA3, first two flushes",lower compared to the control
same,Mean fresh weight,"[1]; 0.001% (v/v) in DBA3, second flush",309±23 mg f. wt.
same,"fresh weight gain, number of shoots per explant and number giving shoots compared to DBA3 without surfactant",[1]; 0.1-0.5% (v/v) in DBA3,significantly (P<0.05) reduced
same,shoot regeneration,[1]; 0.5% (v/v) in DBA3,failed to regenerate shoots
same,Mean fresh weight,[1]; [4],347 ± 24 mg
same,Mean number of shoots per explant,[1]; [4],0.13 ± 0.06
same,% Organogenic explants,[1]; [4],10%
same,Total shoot yield,[1]; [4],8
same,Mean fresh weight,[1]; [5],254 ± 13 mg
same,Mean number of shoots per explant,[1]; [5],0.18 ± 0.07
same,% Organogenic explants,[1]; [5],13.5%
same,Total shoot yield,[1]; [5],11
same,Mean fresh weight,[1]; [6],153 ± 7 mg
same,Mean number of shoots per explant,[1]; [6],0.08 ± 0.04
same,% Organogenic explants,[1]; [6],6.5%
same,Total shoot yield,[1]; [6],5
same,Mean fresh weight,[1]; [7],75 ± 3 mg
same,Mean number of shoots per explant,[1]; [7],0.00 ± 0.00
same,% Organogenic explants,[1]; [7],0%
same,Total shoot yield,[1]; [7],0
same,Mean fresh weight,[1]; [8],309 ± 23 mg
same,Mean number of shoots per explant,[1]; [8],0.07 ± 0.03
same,% Organogenic explants,[1]; [8],6.5%
same,Total shoot yield,[1]; [8],4
same,Mean fresh weight,[1]; [9],264 ± 14 mg
same,Mean number of shoots per explant,[1]; [9],0.10 ± 0.05
same,% Organogenic explants,[1]; [9],6.5%
same,Total shoot yield,[1]; [9],6
same,Mean fresh weight,[1]; [10],158 ± 7 mg
same,Mean number of shoots per explant,[1]; [10],0.05 ± 0.03
same,% Organogenic explants,[1]; [10],5%
same,Total shoot yield,[1]; [10],3
same,Mean fresh weight,[1]; [11],85 ± 4 mg
same,Mean number of shoots per explant,[1]; [11],0.00 ± 0.00
same,% Organogenic explants,[1]; [11],0%
same,Total shoot yield,[1]; [11],0
same,Mean fresh weight,[1]; [12],135 ± 7 mg
same,Mean number of shoots per explant,[1]; [12],0.08 ± 0.04
same,% Organogenic explants,[1]; [12],6.5%
same,Total shoot yield,[1]; [12],5
same,Mean fresh weight,[1]; [13],126 ± 6 mg
same,Mean number of shoots per explant,[1]; [13],0.02 ± 0.02
same,% Organogenic explants,[1]; [13],1.5%
same,Total shoot yield,[1]; [13],1
same,Mean fresh weight,[1]; [14],89 ± 3 mg
same,Mean number of shoots per explant,[1]; [14],0.00 ± 0.00
same,% Organogenic explants,[1]; [14],0%
same,Total shoot yield,[1]; [14],0
same,Mean fresh weight,[1]; [15],61 ± 8 mg
same,Mean number of shoots per explant,[1]; [15],0.00 ± 0.00
same,% Organogenic explants,[1]; [15],0%
same,Total shoot yield,[1]; [15],0
same,shoots survived / shoots grafted,[2]; [16],5/15
same,survival rate of shoots following grafting,[2]; [16],33%
same,growth of explants,[3]; 0.001% (v/v),increased also the growth
same,state of shoots after transfer to shoot elongation medium,"[3]; 0.001%, after 14-21 days",became necrotic
same,shoot regeneration of jute cotyledons,[3],able to promote shoot regeneration
same,growth and regeneration of explants,[3]; concentrations above 0.001% (v/v),inhibited the growth and regeneration
polyoxyethylene (20) sorbitan monolaurate [Tween® 20],Mean fresh weight,[1]; [4],273 ± 15 mg
same,Mean number of shoots per explant,[1]; [4],0.23 ± 0.08
same,% Organogenic explants,[1]; [4],15%
same,Total shoot yield,[1]; [4],14
same,Mean fresh weight,[1]; [5],218 ± 12 mg
same,Mean number of shoots per explant,[1]; [5],0.25 ± 0.07
same,% Organogenic explants,[1]; [5],18.5%
same,Total shoot yield,[1]; [5],15
same,Mean fresh weight,[1]; [6],269 ± 13 mg
same,Mean number of shoots per explant,[1]; [6],0.31 ± 0.08
same,% Organogenic explants,[1]; [6],23%
same,Total shoot yield,[1]; [6],19
same,Mean fresh weight,[1]; [7],253 ± 12 mg
same,Mean number of shoots per explant,[1]; [7],0.18 ± 0.06
same,% Organogenic explants,[1]; [7],15%
same,Total shoot yield,[1]; [7],11
same,Mean fresh weight,[1]; [8],240 ± 15 mg
same,Mean number of shoots per explant,[1]; [8],0.22 ± 0.07
same,% Organogenic explants,[1]; [8],15%
same,Total shoot yield,[1]; [8],13
same,Mean fresh weight,[1]; [9],260 ± 13 mg
same,Mean number of shoots per explant,[1]; [9],0.20 ± 0.07
same,% Organogenic explants,[1]; [9],13.5%
same,Total shoot yield,[1]; [9],12
same,Mean fresh weight,[1]; [10],302 ± 19 mg
same,Mean number of shoots per explant,[1]; [10],0.22 ± 0.07
same,% Organogenic explants,[1]; [10],17%
same,Total shoot yield,[1]; [10],13
same,Mean fresh weight,[1]; [11],250 ± 13 mg
same,Mean number of shoots per explant,[1]; [11],0.17 ± 0.06
same,% Organogenic explants,[1]; [11],13.5%
same,Total shoot yield,[1]; [11],10
same,Mean fresh weight,[1]; [12],193 ± 8 mg
same,Mean number of shoots per explant,[1]; [12],0.07 ± 0.03
same,% Organogenic explants,[1]; [12],7%
same,Total shoot yield,[1]; [12],4
same,Mean fresh weight,[1]; [13],161 ± 7 mg
same,Mean number of shoots per explant,[1]; [13],0.05 ± 0.03
same,% Organogenic explants,[1]; [13],5%
same,Total shoot yield,[1]; [13],3
same,Mean fresh weight,[1]; [14],155 ± 7 mg
same,Mean number of shoots per explant,[1]; [14],0.08 ± 0.04
same,% Organogenic explants,[1]; [14],8.5%
same,Total shoot yield,[1]; [14],5
same,Mean fresh weight,[1]; [15],130 ± 6 mg
same,Mean number of shoots per explant,[1]; [15],0.05 ± 0.03
same,% Organogenic explants,[1]; [15],5%
same,Total shoot yield,[1]; [15],3
same,weight of explants compared to medium without surfactant,[1]; all three flushes of growth,no significant difference
same,growth of vitrified shoots following grafting,[2]; shoots from explants cultured on DBA3 with surfactant (0.01-0.5% (v/v)),failed to graft successfully in vivo; also recorded: all failed to initiate growth following grafting
same,fresh weight gain,[3]; 0.001-0.01% (v/v),significantly increased
same,number of regenerants,[3]; 0.001-0.01% (v/v),significantly increased
same,growth,[3]; 0.5% (v/v),inhibitory to growth
same,shoot production,[3]; 0.5% (v/v),inhibited
same,shoot regeneration of jute cotyledons,[3],able to promote shoot regeneration

# Reference: patent US20130071933A1, “CITRUS SHOOT REGENERATION COMPOSITIONS, METHODS, AND SYSTEMS” (priority 2011, published 2013)
